In patent publication US11253524B2 (Gilead Sciences, Inc., priority 2018, dated 2022):

Assays:
[1] = molecular target: T1, human hepatic microsomal UGT1A1 (Homo sapiens, UniProt P22309); experiment: biochemical; conditions: for Stimulation of enzyme activity, peak increase: at 200 μM
T1 sequence (P22309 26-533): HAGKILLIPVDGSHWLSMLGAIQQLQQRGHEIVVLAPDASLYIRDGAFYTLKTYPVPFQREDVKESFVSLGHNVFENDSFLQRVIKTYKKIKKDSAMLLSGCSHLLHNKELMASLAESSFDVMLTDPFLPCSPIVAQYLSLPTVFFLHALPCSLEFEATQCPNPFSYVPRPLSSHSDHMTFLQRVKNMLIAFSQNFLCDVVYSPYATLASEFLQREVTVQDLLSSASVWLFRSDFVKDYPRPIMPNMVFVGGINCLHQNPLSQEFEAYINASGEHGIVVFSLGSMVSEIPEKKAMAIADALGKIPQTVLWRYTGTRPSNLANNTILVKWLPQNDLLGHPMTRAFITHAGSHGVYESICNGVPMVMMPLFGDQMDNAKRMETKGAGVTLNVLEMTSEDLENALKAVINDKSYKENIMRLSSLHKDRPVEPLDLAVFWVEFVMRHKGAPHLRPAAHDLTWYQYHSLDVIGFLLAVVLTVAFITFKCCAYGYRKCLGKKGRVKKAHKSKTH
Protocol: The conditions for the assay were determined to be linear with respect to microsomal protein concentration and incubation time. […] Microsomal UGT1A1 activity was determined in duplicate. […] Diluted microsomal fraction was incubated on ice for 15 minutes with alamethicin, magnesium chloride and SACLAC. Substrate and inhibitor were then added and the mixture warmed to 37° C. for 0.5 minute. The reaction was initiated by the addition of UDP glucuronic acid in potassium phosphate buffer. The incubation continued at 37° C. with shaking and no light exposure for 2 minutes. Reactions were terminated by addition of one volume of 200 mM ascorbic acid in methanol, containing 200 nM 2-(N-(2-ethylphenyl)methylsulfonamido)-N-(2-(pyridin-2-ylthio)ethyl)acetamide as the internal standard.
A Shimadzu UFLC XR UPLC system was used for analysis. The column used was a Thermo-Hypersil Gold 1.9 μm C18 column (30×2.1 mm) held at 60° C. Mobile phases were; A: water containing 0.1% (v/v) formic acid, and B: acetonitrile containing 0.1% (v/v) formic acid, pumped at 0.7 mL/minute. Elution was achieved by a series of linear gradients over 2 minutes. The mass spectrometer was an Applied Biosciences SCIEX QTRAP 5500 triple quadrupole mass spectrometer with an electrospray interface operating in positive ion mode. Quantification was by metabolite/internal standard peak area ratio (PAR).
MS/MS transitions ([M+H]+) of m/z 761.2/475.1 and 937.2/475.1 for the monoglucuronide and diglucuronide, respectively. The PAR values for the two monoglucuronides were combined for quantification.
Reaction velocities were calculated from the rates of formation of the metabolites and were compared to those seen with the vehicle control (100% activity). IC50 values were calculated by non-linear regression using GraphPad Prism 7.03 and a sigmoidal three parameter inhibition model. […] During the testing period the inhibitory potency of atazanavir was determined four times, with each concentration tested in duplicate in each determination. The data from all runs were pooled and a global fit performed to determine the lower plateau value. […] For atazanavir, the IC50 values from the four duplicate runs were combined to generate a summary geometric mean and multiplicative standard deviation for this positive control inhibitor.

[2] = molecular target: T2, OATP1B1 (Homo sapiens, UniProt Q9Y6L6); experiment: OATP1B1 inhibition assay using 3H-E217βG as probe substrate, HEK293FT cells; assay type: cell-based; parameters: expressed in transfected cells; conditions: for IC50 (μM): NIO = no interaction observed
T2 sequence (Q9Y6L6 1-691): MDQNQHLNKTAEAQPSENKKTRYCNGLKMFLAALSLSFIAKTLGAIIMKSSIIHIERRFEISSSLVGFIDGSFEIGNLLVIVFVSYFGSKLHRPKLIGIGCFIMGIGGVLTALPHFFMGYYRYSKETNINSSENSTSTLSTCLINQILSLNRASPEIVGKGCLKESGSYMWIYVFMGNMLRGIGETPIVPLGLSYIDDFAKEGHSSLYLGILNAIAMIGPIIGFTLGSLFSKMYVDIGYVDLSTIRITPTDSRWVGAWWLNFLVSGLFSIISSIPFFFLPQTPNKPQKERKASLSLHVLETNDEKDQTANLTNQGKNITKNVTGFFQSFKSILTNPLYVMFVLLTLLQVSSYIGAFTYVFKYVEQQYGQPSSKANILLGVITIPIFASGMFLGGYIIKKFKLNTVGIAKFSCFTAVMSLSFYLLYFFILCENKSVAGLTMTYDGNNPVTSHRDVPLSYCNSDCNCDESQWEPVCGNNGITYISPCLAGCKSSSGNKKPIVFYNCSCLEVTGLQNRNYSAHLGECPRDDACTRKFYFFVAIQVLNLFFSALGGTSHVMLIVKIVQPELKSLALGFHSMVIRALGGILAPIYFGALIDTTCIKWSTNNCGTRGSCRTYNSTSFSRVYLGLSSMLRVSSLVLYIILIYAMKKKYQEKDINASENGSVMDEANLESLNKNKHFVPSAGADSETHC
Protocol: HEK293FT-Mock and OATP-transfected cells (1×10^5 cells each) were seeded 24 hr prior to assay. Pre-rinsed ells were incubated for 3 minutes with 1 μM ^3H-E217βG in HK buffer in the presence of various concentrations of test compound or positive control rifampicin. After the experiment cells were rinsed with Krebs-Henseleit buffer and lysed with 0.1 M NaOH. The amount of substrate inside the cells was determined by liquid scintillation reader.
Percent inhibition was calculated according to the following equation: % inhibition=[1−{[OATP]i−[WT]ni}/{[OATP]ni−[WT]ni}]*100 where: [OATP]i represent the substrate accumulation in the presence of test compound for either OATP1B1, OATP1B3, or OATP2B1 cells; [OATP]ni represents the substrate accumulation in the absence of test compound for either OATP1B1, OATP1B3, or OATP2B1 cells, respectively; and [WT]ni represents the substrate accumulation in the absence of test compound for wild type cells or Mock cells, respectively. IC50 Determination in Transporter Assays
IC50 was determined according to the procedures described in Example 5. […] Results are reported as NIO (no interaction observed).

Compound | IC50 [1] [µM] | Stimulation of enzyme activity, peak increase [1] [%] | IC50 (μM) [2] | Maximum inhibition at highest test conc. (% of control) ([2]; at 100 μM) | inhibition at 3 min, 100 µM ([2]; human, HEK293FT cells transfected with OATP1B1, probe 3H-E217βG (1 μM), at 100 μM, read-out: Maximum inhibition at highest test conc. (% of control)) [%]
O=C(NCc1c(F)cc(F)cc1F)c1cn2c(c(O)c1=O)C(=O)N1[C@H]3CC[C@H](C3)O[C@@H]1C2 [BIC, bictegravir, reference compound] | > 300 | 76 | NIO | – | –
O=C(NCc1c(F)cc(F)cc1F)c1cn2c(c(O[C@@H]3O[C@H](C(=O)O)[C@@H](O)[C@H](O)[C@H]3O)c1=O)C(=O)N1[C@H]3CC[C@H](C3)O[C@@H]1C2 [Metabolite M15] | > 300 | 21 | – | – | –
O=C(NCc1c(F)cc(F)c(OS(=O)(=O)O)c1F)c1cn2c(c(O)c1=O)C(=O)N1C(C2)O[C@@H]2CC[C@H]1C2 (stereo partly shown) [Metabolite M20] | 153 | – | NIO* | no dose dependent inhibition | 12
O=C(NCc1c(F)cc(F)c(O)c1F)c1cn2c(c(O)c1=O)C(=O)N1[C@H]3CC[C@H](C3)O[C@@H]1C2 [Metabolite M23] | 256 | – | – | – | –
